Test results published in patent US8716292B2, “Riminophenazines with 2-(heteroaryl)amino substituents and their anti-microbial activity” (priority 2010, dated 2014).
≈ marks a conversion by molar mass, not a printed value.

test system: Mycobacterium tuberculosis H37Rv strains; test: In vitro assay for antimicrobial susceptibility (microplate Alamar blue MIC); assay type: cell-based; conditions: Mycobacterium tuberculosis, H37RV, in vitro, Mycobacterium tuberculosis H37Rv strains; read-out: MIC (μg/mL) against H37Rv

Point of comparison: Cc1ccc(Nc2cc3nc4ccccc4n(-c4ccc(Cl)cc4)c-3c/c2=N\C(C)C)cn1 [TBI-441], MIC 0.06 µg/mL (≈ 0.132 µM). Against it:
- Cc1ccc(-n2c3c/c(=N\C4CCC4)c(Nc4cncc(C)c4)cc-3nc3ccccc32)cc1 [TBI-348, 5-(4-Methylphenyl)-3-cyclobutylimino-2-(5-methyl-3-pyridyl)amino-3,5-dihydrophenazine] — 2-fold higher, 0.118 µg/mL (≈ 0.265 µM)
- Cc1ccc(-n2c3c/c(=N\C4CC4)c(Nc4cccnc4)cc-3nc3ccccc32)cc1 [TBI-349, 5-(4-Methylphenyl)-3-cyclopropylimino-2-(3-pyridyl)amino-3,5-dihydrophenazine] — 8-fold lower, 0.0075 µg/mL (≈ 0.018 µM)
- Clc1ccc(-n2c3c/c(=N\C4CCCCC4)c(Nc4cccnc4)cc-3nc3ccccc32)cc1Cl [TBI-350, 5-(3,4-Dichlorophenyl)-3-cyclohexylimino-2-(3-pyridyl)amino-3,5-dihydrophenazine] — 1.9-fold lower, 0.031 µg/mL (≈ 0.0603 µM)
- Clc1ccc(-n2c3c/c(=N\C4CCOCC4)c(Nc4cccnc4)cc-3nc3ccccc32)cc1Cl [TBI-351, 5-(3,4-Dichlorophenyl)-3-(4-tetrahydropyranyl)imino-2-(3-pyridyl)amino-3,5-dihydrophenazine] — within 1.5-fold, 0.079 µg/mL (≈ 0.153 µM)
- COC1CCC(/N=c2\cc3n(-c4ccc(Cl)c(Cl)c4)c4ccccc4nc-3cc2Nc2cccnc2)CC1 (stereo not shown) [TBI-352, 5-(3,4-Dichlorophenyl)-3-(4-methoxycyclohexyl)imino-2-(3-pyridyl)amino-3,5-dihydrophenazine] — 1.6-fold higher, 0.096 µg/mL (≈ 0.176 µM)
- Cc1ccc(Nc2cc3nc4ccccc4n(-c4ccc(Cl)c(Cl)c4)c-3c/c2=N\C(C)C)cn1 [TBI-353] — 2.4-fold lower, 0.025 µg/mL (≈ 0.0512 µM)
- Cc1ccc(Nc2cc3nc4ccccc4n(-c4ccc(Cl)c(Cl)c4)c-3c/c2=N\C2CCCCC2)cn1 [TBI-354, 5-(3,4-Dichlorophenyl)-3-cyclohexylimino-2-(6-methyl-3-pyridyl)amino-3,5-dihydrophenazine] — 3.8-fold higher, 0.229 µg/mL (≈ 0.433 µM)
- COC1CCC(/N=c2\cc3n(-c4ccc(Cl)c(Cl)c4)c4ccccc4nc-3cc2Nc2ccc(C)nc2)CC1 (stereo not shown) [TBI-355, 5-(3,4-Dichlorophenyl)-3-(4-methoxycyclohexyl)imino-2-(6-methyl-3-pyridyl)amino-3,5-dihydrophenazine] — 1.5-fold higher, 0.09 µg/mL (≈ 0.161 µM)
- COc1ccc(Nc2cc3nc4ccccc4n(-c4ccc(C)cc4)c-3c/c2=N\C(C)C)cn1 [TBI-356, 5-(4-Methylphenyl)-3-(1-methylethyl)imino-2-(6-methoxy-3-pyridyl)amino-3,5-dihydrophenazine] — 7.7-fold higher, 0.459 µg/mL (≈ 1.02 µM)
- COc1ccc(Nc2cc3nc4ccccc4n(-c4ccc(C)cc4)c-3c/c2=N\C2CCCCC2)cn1 [TBI-357, 5-(4-Methylphenyl)-3-cyclohexylimino-2-(6-methoxy-3-pyridyl)amino-3,5-dihydrophenazine] — 3.8-fold higher, 0.228 µg/mL (≈ 0.466 µM)
- COc1ccc(Nc2cc3nc4ccccc4n(-c4ccc(C)cc4)c-3c/c2=N\C2CCC(OC)CC2)cn1 (stereo not shown) [TBI-358, 5-(4-Methylphenyl)-3-(4-methoxycyclohexyl)imino-2-(6-methoxy-3-pyrid)amino-3,5-dihydrophenazine] — 3.4-fold higher, 0.202 µg/mL (≈ 0.389 µM)
- COc1ccc(Nc2cc3nc4ccccc4n(-c4ccc(C)cc4)c-3c/c2=N\C2CCOCC2)cn1 [TBI-360, 5-(4-Methylphenyl)-3-(4-tetrahydropyranyl)imino-2-(6-methoxy-3-pyridyl)amino-3,5-dihydrophenazine] — 3.3-fold higher, 0.2 µg/mL (≈ 0.407 µM)
- COc1ncccc1Nc1cc2nc3ccccc3n(-c3ccc(Cl)c(Cl)c3)c-2c/c1=N\C1CCOCC1 [TBI-361, 5-(3,4-Dichlorophenyl)-3-(4-tetrahydropyranyl)imino-2-(2-methoxy-3-pyridyl)amino-3,5-dihydrophenazine] — within 1.5-fold, 0.08 µg/mL (≈ 0.146 µM)
- CC(C)/N=c1\cc2n(-c3ccc(Cl)cc3Cl)c3ccccc3nc-2cc1Nc1cccnc1 [TBI-363, 5-(2,4-Dichlorophenyl)-3-(1-methylethyl)imino-2-(3-pyridyl)amino-3,5-dihydrophenazine] — 2-fold lower, 0.03 µg/mL (≈ 0.0632 µM)
- COc1ncccc1Nc1cc2nc3ccccc3n(-c3ccc(OC(F)(F)F)cc3)c-2c/c1=N\C1CC1 [TBI-364, 5-(4-Trifluoromethoxyphenyl)-3-cyclopropylimino-2-(2-methoxy-3-pyridyl)amino-3,5-dihydrophenazine] — 4-fold lower, 0.015 µg/mL (≈ 0.029 µM)
- COc1ncccc1Nc1cc2nc3ccccc3n(-c3ccc(OC(F)(F)F)cc3)c-2c/c1=N\C1CCCCC1 [TBI-365, 5-(4-Trifluoromethoxyphenyl)-3-cyclohexylimino-2-(2-methoxy-3-pyridyl)amino-3,5-dihydrophenazine] — 3.3-fold lower, 0.018 µg/mL (≈ 0.0322 µM)
- Clc1ccc(-n2c3c/c(=N\C4CC4)c(Nc4cccnc4)cc-3nc3ccccc32)c(Cl)c1 [TBI-367, 5-(2,4-Dichlorophenyl)-3-cyclopropylimino-2-(3-pyridyl)amino-3,5-dihydrophenazine] — 2.6-fold lower, 0.023 µg/mL (≈ 0.0487 µM)
- Clc1ccc(-n2c3c/c(=N\C4CCCCC4)c(Nc4cccnc4)cc-3nc3ccccc32)c(Cl)c1 [TBI-368, 5-(2,4-Dichlorophenyl)-3-cyclohexylimino-2-(3-pyridyl)amino-3,5-dihydrophenazine] — within 1.5-fold, 0.054 µg/mL (≈ 0.105 µM)
- COc1ncccc1Nc1cc2nc3ccccc3n(-c3ccc(Cl)cc3Cl)c-2c/c1=N\C(C)C [TBI-369, 5-(2,4-Dichlorophenyl)-3-(1-methylethyl)imino-2-(2-methoxy-3-pyridyl)amino-3,5-dihydrophenazine] — 1.7-fold higher, 0.104 µg/mL (≈ 0.206 µM)
- COc1ncccc1Nc1cc2nc3ccccc3n(-c3ccc(Cl)cc3Cl)c-2c/c1=N\C1CC1 [TBI-370, 5-(2,4-Dichlorophenyl)-3-cyclopropylimino-2-(2-methoxy-3-pyridyl)amino-3,5-dihydrophenazine] — within 1.5-fold, 0.052 µg/mL (≈ 0.104 µM)
- COc1ncccc1Nc1cc2nc3ccccc3n(-c3ccc(Cl)cc3Cl)c-2c/c1=N\C1CCC(OC)CC1 (stereo not shown) [TBI-371, 5-(2,4-Dichlorophenyl)-3-(4-methoxycyclohexyl)imino-2-(2-methoxy-3-pyridyl)amino-3,5-dihydrophenazine] — within 1.5-fold, 0.044 µg/mL (≈ 0.0766 µM)
- COCC(COC)/N=c1\cc2n(-c3ccc(OC(F)(F)F)cc3)c3ccccc3nc-2cc1Nc1cccnc1OC [TBI-372] — 1.6-fold higher, 0.098 µg/mL (≈ 0.169 µM)
- COCC(COC)/N=c1\cc2n(-c3ccc(C)cc3)c3ccccc3nc-2cc1Nc1cccnc1OC [TBI-373, 5-(4-Methylphenyl)-3-(1,3-dimethoxyisopropyl)imino-2-(2-methoxy-3-pyridyl)amino-3,5-dihydrophenazine] — 2.1-fold higher, 0.125 µg/mL (≈ 0.245 µM)
- COCC(COC)/N=c1\cc2n(-c3ccc(C)cc3)c3ccccc3nc-2cc1Nc1ccc(C)nc1 [TBI-374, 5-(4-Methylphenyl)-3-(1,3-dimethoxyisopropyl)imino-2-(6-methyl-3-pyridyl)amino-3,5-dihydrophenazine] — 2.1-fold higher, 0.125 µg/mL (≈ 0.253 µM)
- COCC(COC)/N=c1\cc2n(-c3ccc(Cl)c(Cl)c3)c3ccccc3nc-2cc1Nc1cccnc1OC [TBI-375, 5-(3,4-Dichlorophenyl)-3-(1,3-dimethoxyisopropyl)imino-2-(2-methoxy-3-pyridyl)amino-3,5-dihydrophenazine] — 2.1-fold higher, 0.125 µg/mL (≈ 0.221 µM)
- Clc1ccc(-n2c3c/c(=N\CCN4CCOCC4)c(Nc4cccnc4)cc-3nc3ccccc32)cc1 [TBI-433, 5-(4-Chlorophenyl)-3-(2-morpholinoethyl)imino-2-(3-pyridyl)amino-3,5-dihydrophenazine] — 4.2-fold higher, 0.25 µg/mL (≈ 0.489 µM)
- COc1ncccc1Nc1cc2nc3ccccc3n(-c3ccc(Cl)cc3)c-2c/c1=N\C(C)C [TBI-438, 5-(4-Chlorophenyl)-3-(1-methylethyl)imino-2-(2-methoxy-3-pyridyl)amino-3,5-dihydrophenazine] — 2-fold lower, 0.03 µg/mL (≈ 0.0638 µM)
- COc1ncccc1Nc1cc2nc3ccccc3n(-c3ccc(Cl)cc3)c-2c/c1=N\CCN1CCOCC1 [TBI-439, 5-(4-Chlorophenyl)-3-(2-morpholinoethyl)imino-2-(2-methoxy-3-pyridyl)amino-3,5-dihydrophenazine] — the same, 0.06 µg/mL (≈ 0.111 µM)
- COc1ncccc1Nc1cc2nc3ccccc3n(-c3ccc(Cl)cc3)c-2c/c1=N\C1CCN(C)CC1 [TBI-440, 5-(4-Chlorophenyl)-3-(N-methyl-4-piperidyl)imino-2-(2-methoxy-3-pyridyl)amino-3,5-dihydrophenazine] — the same, 0.06 µg/mL (≈ 0.114 µM)
- COc1ncccc1Nc1cc2nc3ccccc3n(-c3ccc(Cl)cc3)c-2c/c1=N\C1CCN(CC(C)C)CC1 [TBI-442, 5-(4-Chlorophenyl)-3-(N-isobutyl-4-piperidyl)imino-2-(2-methoxy-3-pyridyl)amino-3,5-dihydrophenazine] — 3.8-fold lower, 0.016 µg/mL (≈ 0.0282 µM)
- Cc1ccc(Nc2cc3nc4ccccc4n(-c4ccc(Cl)cc4)c-3c/c2=N\CCN2CCOCC2)cn1 [TBI-445, 5-(4-Chlorophenyl)-3-(2-morpholinoethyl)imino-2-(6-methyl-3-pyridyl)amino-3,5-dihydrophenazine] — within 1.5-fold, 0.076 µg/mL (≈ 0.145 µM)
- Cc1ccc(Nc2cc3nc4ccccc4n(-c4ccc(Cl)cc4)c-3c/c2=N\C2CCN(C)CC2)cn1 [TBI-446, 5-(4-Chlorophenyl)-3-(N-methyl-4-piperidyl)imino-2-(6-methyl-3-pyridyl)amino-3,5-dihydrophenazine] — 3.8-fold lower, 0.016 µg/mL (≈ 0.0314 µM)
- Cc1ccc(Nc2cc3nc4ccccc4n(-c4ccc(Cl)cc4)c-3c/c2=N\C2CCN(CC(C)C)CC2)cn1 [TBI-447, 5-(4-Chlorophenyl)-3-(N-isobutyl-4-piperidyl)imino-2-(6-methyl-3-pyridyl)amino-3,5-dihydrophenazine] — 2.1-fold lower, 0.028 µg/mL (≈ 0.0508 µM)
- Cc1ncccc1Nc1cc2nc3ccccc3n(-c3ccc(Cl)cc3)c-2c/c1=N\C(C)C [TBI-448, 5-(4-Chlorophenyl)-3-(1-methylethyl)imino-2-(2-methyl-3-pyridyl)amino-3,5-dihydrophenazine] — within 1.5-fold, 0.055 µg/mL (≈ 0.121 µM)
- COc1ncccc1Nc1cc2nc3ccccc3n(-c3ccc(Cl)cc3)c-2c/c1=N\C1CCCCC1 [TBI-451] — within 1.5-fold, 0.057 µg/mL (≈ 0.112 µM)
- Cc1ncccc1Nc1cc2nc3ccccc3n(-c3ccc(Cl)cc3)c-2c/c1=N\C1CCOCC1 [TBI-452] — 2.8-fold higher, 0.168 µg/mL (≈ 0.339 µM)
- COC1CCC(/N=c2\cc3n(-c4ccc(Cl)cc4)c4ccccc4nc-3cc2Nc2cccnc2C)CC1 (stereo not shown) [TBI-453, 5-(4-Chlorophenyl)-3-(4-methoxycyclohexyl)imino-2-(2-methyl-3-pyridyl)amino-3,5-dihydrophenazine] — 5.5-fold lower, 0.011 µg/mL (≈ 0.021 µM)
- CSc1cccc(-n2c3c/c(=N\C(C)C)c(Nc4cccnc4)cc-3nc3ccccc32)c1 [TBI-454, 5-(3-Methylthiophenyl)-3-(1-methylethyl)imino-2-(3-pyridyl)amino-3,5-dihydrophenazine] — 3.6-fold higher, 0.213 µg/mL (≈ 0.472 µM)
- CC(C)/N=c1\cc2n(-c3cccc([S+](C)[O-])c3)c3ccccc3nc-2cc1Nc1cccnc1 (stereo not shown) [TBI-455, 5-(3-Methylsulfinylphenyl)-3-(1-methylethyl)imino-2-(3-pyridyl)amino-3,5-dihydrophenazine] — 8.3-fold higher, 0.5 µg/mL (≈ 1.07 µM)
